For 36 molecules, IC50 results are on record in patent US20110178070A1, “PI3K/mTOR INHIBITORS” (TAKEDA PHARMACEUTICAL COMPANY LIMITED, priority 2008, published 2011).

Sequence of mTOR (P42345 1360-2549): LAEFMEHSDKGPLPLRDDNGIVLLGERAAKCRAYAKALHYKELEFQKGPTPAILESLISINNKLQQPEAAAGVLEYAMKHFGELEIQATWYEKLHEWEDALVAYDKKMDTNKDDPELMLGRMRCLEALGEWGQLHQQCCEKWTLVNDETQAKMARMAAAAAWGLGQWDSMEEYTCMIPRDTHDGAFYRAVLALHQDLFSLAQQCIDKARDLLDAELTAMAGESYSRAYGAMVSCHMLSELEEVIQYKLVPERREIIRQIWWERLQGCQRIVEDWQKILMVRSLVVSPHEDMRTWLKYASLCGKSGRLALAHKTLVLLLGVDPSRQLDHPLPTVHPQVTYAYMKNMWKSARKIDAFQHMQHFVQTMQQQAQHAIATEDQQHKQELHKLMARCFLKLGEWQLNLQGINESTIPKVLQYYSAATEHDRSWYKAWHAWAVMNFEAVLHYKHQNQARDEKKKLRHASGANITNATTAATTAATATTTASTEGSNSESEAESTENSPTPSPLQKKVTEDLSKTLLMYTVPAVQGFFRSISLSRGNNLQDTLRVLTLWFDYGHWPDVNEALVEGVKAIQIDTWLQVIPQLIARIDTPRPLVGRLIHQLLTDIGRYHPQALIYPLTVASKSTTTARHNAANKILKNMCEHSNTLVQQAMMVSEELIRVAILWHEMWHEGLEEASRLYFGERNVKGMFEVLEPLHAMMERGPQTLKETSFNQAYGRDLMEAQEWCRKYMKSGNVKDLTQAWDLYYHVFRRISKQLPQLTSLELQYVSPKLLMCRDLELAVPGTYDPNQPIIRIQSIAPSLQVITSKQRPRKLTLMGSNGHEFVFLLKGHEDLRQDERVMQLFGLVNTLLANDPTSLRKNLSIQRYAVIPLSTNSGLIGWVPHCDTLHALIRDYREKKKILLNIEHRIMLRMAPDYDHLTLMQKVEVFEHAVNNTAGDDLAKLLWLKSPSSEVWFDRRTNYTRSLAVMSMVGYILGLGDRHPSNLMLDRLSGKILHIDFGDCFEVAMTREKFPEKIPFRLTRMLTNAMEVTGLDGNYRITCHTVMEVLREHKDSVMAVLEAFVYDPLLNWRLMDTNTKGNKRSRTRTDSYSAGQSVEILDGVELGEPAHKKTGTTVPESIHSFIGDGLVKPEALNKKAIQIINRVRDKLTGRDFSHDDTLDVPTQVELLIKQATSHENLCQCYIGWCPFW

One assay concerns the target mTOR (Homo sapiens, UniProt P42345). As to the kind of experiment: Z-Lyte biochemical assay, inhibition of mTOR (Example A).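 Note: synthetic Ser/Thr peptide with coumarin–fluorescein FRET pair, phosphorylation protects from protease cleavage, coumarin/fluorescein emission ratio after 400 nm excitation, 1 h kinase reaction, 10-point 3-fold titrations.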 The settings on record: IC50 (nM) mTOR, Table 1; 10 μM ATP.
Description: The inhibitory property of a compound relative to mTOR catalysis was determined by using the Z-Lyte™ biochemical assay conducted by Invitrogen Corporation (Madison, Wis.), which employs a fluorescence-based, coupled-enzyme format and is based on the differential sensitivity of phosphorylated and non-phosphorylated peptides to proteolytic cleavage. The peptide substrate is labeled with two fluorophores—one at each end—that make up a FRET pair.
In the primary reaction, the kinase transfers the gamma-phosphate of ATP to a single tyrosine, serine or threonine residue in a synthetic FRET-peptide. In the secondary reaction, a site-specific protease recognizes and cleaves non-phosphorylated FRET-peptides. Phosphorylation of FRET-peptides suppresses cleavage by the Development Reagent. Cleavage disrupts FRET between the donor (i.e., coumarin) and acceptor (i.e., fluorescein) fluorophores on the FRET-peptide, whereas uncleaved, phosphorylated FRET-peptides maintain FRET. A ratio metric method, which calculates the ratio (the Emission Ratio) of donor emission to acceptor emission after excitation of the donor fluorophore at 400 nm, is used to quantitate reaction progress, as shown in the equation below.
A significant benefit of this ratio metric method for quantitating reaction progress is the elimination of well-to-well variations in FRET-peptide concentration and signal intensities. […] Both cleaved and uncleaved FRET-peptides contribute to the fluorescence signals and therefore to the Emission Ratio. The extent of phosphorylation of the FRET-peptide can be calculated from the Emission Ratio.
Recombinant human mTOR enzyme (amino acids 1360-2549), GST-tagged, expressed in and purified from insect cells (Invitrogen Corp. Cat. #PV4753; also known as FRAP1) was used for the assay. The 2×FRAP1 (mTOR)/Ser/Thr 11 Peptide Mixture (Invitrogen Corp.) was prepared in buffer containing 50 mM HEPES pH 7.5, 0.01% BRIJ-35, 10 mM MnCl2, 1 mM EGTA, 2 mM DTT, and 0.02% NaN3. The final 10 μL Kinase Reaction consisted of 7.2-58.1 ng FRAP1 (mTOR) and 2 μM Ser/Thr 11 Peptide in buffer containing 50 mM HEPES pH 7.5, 0.01% BRIJ-35, 5 mM MgCl2, 5 mM MnCl2, 1 mM EGTA, 1 mM DTT, and 0.01% NaN3.
Test compounds are screened in 1% DMSO (final) in the well. For 10 point titrations, 3-fold serial dilutions are conducted from the starting concentration. The Ser/Thr 11 Peptide/Kinase Mixture was diluted to a 2× working concentration in buffer containing 50 mM HEPES pH 7.5, 0.01% BRIJ-35, 10 mM MnCl2, 1 mM EGTA, 2 mM DTT, and 0.02% NaN3. The ATP solution was diluted to a 4× working concentration in buffer containing 50 mM HEPES pH 7.5, 0.01% BRIJ-35, 10 mM MgCl2, and 1 mM EGTA.
After the 1 hour Kinase Reaction incubation, 5 μL of a 1:16 dilution of Development Reagent B was added, and the development reaction was allowed to proceed for an additional 1 hour at room temperature. The assay plate was then read on a fluorescence plate reader and the data analyzed as outlined above.
IC50 values were calculated by non-linear least squares curve fitting using XLfit from IDBS to fit the results to model number 205 (sigmoidal dose-response model).
`CC(=O)Nc1nc2ccc(-c3ccc4[nH]ccc4c3)nc2s1` [Example 2, N-(5-(1H-Indol-5-yl)thiazolo[5,4-b]pyridin-2-yl)acetamide] returned an IC50 of 100 to 1000 nM.
The same measure, in the same setting: with `CC(=O)Nc1nc2ccc(-c3ccc4[nH]ncc4c3)nc2s1` [Example 3, N-(5-(1H-Indazol-5-yl)thiazolo[5,4-b]pyridin-2-yl)acetamide] the figure was 100 to 1000 nM; with `CC(=O)Nc1ccc(-c2ccc3nc(NC(C)=O)sc3n2)cn1` [Example 4, N-(5-(6-Acetamidopyridin-3-yl)thiazolo[5,4-b]pyridin-2-yl)acetamide], 100 to 1000 nM; with `CC(=O)Nc1nc2ccc(-c3ccc(C(C)(C)C#N)cc3)nc2s1` [Example 5, N-(5-(4-(2-Cyanopropan-2-yl)phenyl)thiazolo[5,4-b]pyridin-2-yl)acetamide], more than 1000 nM.
`CNC(=O)c1ccc(-c2ccc3nc(NC(C)=O)sc3n2)cn1` [Example 6, 5-(2-Acetamidothiazolo[5,4-b]pyridin-5-yl)-N-methylpicolinamide] came in with an IC50 of 100 to 1000 nM.
`CC(=O)Nc1nc2ccc(-c3cnc(Cl)c(NS(=O)(=O)c4ccccc4)c3)nc2s1` [Example 7, N-(5-(6-Chloro-5-(phenylsulfonamido)pyridin-3-yl)thiazolo[5,4-b]pyridin-2-yl)acetamide]: the IC50 was less than 100 nM.
Consider `CC(=O)Nc1nc2ccc(-c3cnc(Cl)c(NS(C)(=O)=O)c3)nc2s1` [Example 8, N-(5-(6-Chloro-5-(methylsulfonamido)pyridin-3-yl)thiazolo[5,4-b]pyridin-2-yl)acetamide], for which the half-maximal inhibitory concentration (IC50) is less than 100 nM.
Molecule `CS(=O)(=O)Nc1cc(-c2ccc3nc(NC(=O)C4CC4)sc3n2)cnc1Cl` [Example 9, N-(5-(6-Chloro-5-(methylsulfonamido)pyridin-3-yl)thiazolo[5,4-b]pyridin-2-yl)cyclopropanecarboxamide] came in with an IC50 of less than 100 nM.
The same measure, in the same setting: with `CC(=O)Nc1nc2ccc(-c3ccccc3)cc2s1` [Example 10, N-(6-Phenylbenzo[d]thiazol-2-yl)acetamide] the figure was more than 1000 nM; with `CC(=O)Nc1nc2ccc(-c3cccnc3)cc2s1` [Example 11, N-(6-(Pyridin-3-yl)benzo[d]thiazol-2-yl)acetamide], 100 to 1000 nM.
`CC(=O)Nc1nc2ccc(-c3ccc4[nH]ccc4c3)cc2s1` [Example 12, N-(6-(1H-Indol-5-yl)benzo[d]thiazol-2-yl)acetamide] returned an IC50 of more than 1000 nM.
As to `CC(=O)Nc1nc2ccc(-c3ccc(N)cc3)cc2s1` [Example 13, N-(6-(4-Aminophenyl)benzo[d]thiazol-2-yl)acetamide], the IC50 is more than 1000 nM.
`CC(=O)Nc1nc2ccc(-c3ccc4[nH]cc(C=O)c4c3)cc2s1` [Example 15, N-(6-(3-Formyl-1H-indol-5-yl)benzo[d]thiazol-2-yl)acetamide] showed an IC50 of less than 100 nM.
With `CC(=O)Nc1nc2ccc(-c3ccc4[nH]cc(C(N)=O)c4c3)cc2s1` [Example 17, 5-(2-Acetamidobenzo[d]thiazol-6-yl)-1H-indole-3-carboxamide], the IC50 is more than 1000 nM.
On to `CC(=O)Nc1nc2ccc(-c3cnc(Cl)c(NS(=O)(=O)c4ccccc4)c3)cc2s1` [Example 18, N-(6-(6-Chloro-5-(phenylsulfonamido)pyridin-3-yl)benzo[d]thiazol-2-yl)acetamide], for which the IC50 is less than 100 nM.
With `CC(=O)Nc1nc2ccc(-c3ccc(N)cc3C(F)(F)F)cc2s1` [Example 19, N-(6-(4-Amino-2-(trifluoromethyl)phenyl)benzo[d]thiazol-2-yl)acetamide], the IC50 is more than 1000 nM.
`CC(=O)Nc1nc2ccc(-c3cnc(N)cn3)cc2s1` [Example 20, N-(6-(5-Aminopyrazin-2-yl)benzo[d]thiazol-2-yl)acetamide]: the IC50 is 100 to 1000 nM.
Consider `CC(=O)Nc1nc2ccc(-c3ccc4nccn4c3)nc2s1` [Example 22, N-(5-(Imidazo[1,2-a]pyridin-6-yl)thiazolo[5,4-b]pyridin-2-yl)acetamide], for which the IC50 is 100 to 1000 nM.
For the molecule `CC(=O)Nc1nc2ccc(-c3ccc(C#N)nc3)nc2s1` [Example 23, N-(5-(6-Cyanopyridin-3-yl)thiazolo[5,4-b]pyridin-2-yl)acetamide], the IC50 was in the range of 100 to 1000 nM.
On the same count and under the same terms, as for `CC(=O)Nc1nc2ccc(-c3cnc4[nH]ccc4c3)nc2s1` [Example 24, N-(5-(1H-Pyrrolo[2,3-b]pyridin-5-yl)thiazolo[5,4-b]pyridin-2-yl)acetamide], the figure is less than 100 nM; as for `CC(=O)Nc1nc2ccc(-c3cnc4cc[nH]c4c3)nc2s1` [Example 25, N-(5-(1H-Pyrrolo[3,2-b]pyridin-6-yl)thiazolo[5,4-b]pyridin-2-yl)acetamide], less than 100 nM; as for `CONC(=O)c1cccc(-c2ccc3nc(NC(C)=O)sc3n2)c1` [Example 27, 3-(2-Acetamidothiazolo[5,4-b]pyridin-5-yl)-N-methoxybenzamide], more than 1000 nM.
Turning to `CONC(=O)c1ccc(-c2ccc3nc(NC(C)=O)sc3n2)cc1` [Example 30, 4-(2-Acetamidothiazolo[5,4-b]pyridin-5-yl)-N-methoxybenzamide], the IC50 was in the range of 100 to 1000 nM.
`CC(=O)Nc1nc2ccc(-c3ccc4c(c3)CC(=O)N4)nc2s1` [Example 31, N-(5-(2-oxoindolin-5-yl)thiazolo[5,4-b]pyridin-2-yl)acetamide]: the half-maximal inhibitory concentration (IC50) lay within 100 to 1000 nM.
In turn, `CC(=O)Nc1nc2ccc(-c3ccncc3)nc2s1` [Example 33, N-(5-(Pyridin-4-yl)thiazolo[5,4-b]pyridin-2-yl)acetamide] gave an IC50 of more than 1000 nM.
As for `CC(=O)Nc1nc2ccc(-c3ccccc3N)nc2s1` [Example 34, N-(5-(2-Aminophenyl)thiazolo[5,4-b]pyridin-2-yl)acetamide], the IC50 is more than 1000 nM.
As to `CNC(=O)c1ccc(-c2ccc3nc(NC(C)=O)sc3n2)cc1` [Example 35, 4-(2-Acetamidothiazolo[5,4-b]pyridin-5-yl)-N-methylbenzamide], the IC50 is less than 100 nM.
`CC(=O)Nc1ccc(-c2ccc3nc(NC(C)=O)sc3n2)cc1` [Example 36, N-(5-(4-Acetamidophenyl)thiazolo[5,4-b]pyridin-2-yl)acetamide] showed an IC50 of 100 to 1000 nM.
Molecule `CC(=O)Nc1nc2ccc(-c3ccc(C(=O)NC4CC4)cc3)nc2s1` [Example 37, 4-(2-Acetamidothiazolo[5,4-b]pyridin-5-yl)-N-cyclopropylbenzamide] yielded an IC50 of 100 to 1000 nM.
In turn, `CC(=O)Nc1nc2ccc(-c3ccc(C(N)=O)cc3)nc2s1` [Example 38, 4-(2-Acetamidothiazolo[5,4-b]pyridin-5-yl)benzamide] had an IC50 of less than 100 nM.
The molecule `CC(=O)Nc1ccc(-c2ccc3nc(NC(C)=O)sc3c2)cc1` [Example 39, N-(4-(2-Acetamidobenzo[d]thiazol-6-yl)phenyl)acetamide] came in with an IC50 of 100 to 1000 nM.
Molecule `CNC(=O)c1cccc(-c2ccc3nc(NC(C)=O)sc3c2)c1` [Example 40, 3-(2-Acetamidobenzo[d]thiazol-6-yl)-N-methylbenzamide] yielded an IC50 of more than 1000 nM.
`CC(=O)Nc1nc2ccc(-c3ccc(-c4nnc[nH]4)cc3)nc2s1` [Example 42, N-(5-(4-(4H-1,2,4-Triazol-3-yl)phenyl)thiazolo[5,4-b]pyridin-2-yl)acetamide]: the IC50 was less than 100 nM.
`CCS(=O)(=O)Nc1cc(-c2ccc3nc(NC(C)=O)sc3n2)cnc1Cl` [Example 47, N-(5-(6-Chloro-5-(ethylsulfonamido)pyridin-3-yl)thiazolo[5,4-b]pyridin-2-yl)acetamide] came in with a 50% inhibitory concentration (IC50) of less than 100 nM.
Still for that read-out and setting: with `CC(=O)Nc1nc2ccc(-c3cnc(Cl)c(NS(C)(=O)=O)c3)cc2s1` [Example 48, N-(6-(6-Chloro-5-(methylsulfonamido)pyridin-3-yl)benzo[d]thiazol-2-yl)acetamide] the figure was less than 100 nM; with `CC(=O)Nc1nc2ccc(-c3cnc(Cl)c(NS(=O)(=O)C4CC4)c3)nc2s1` [Example 49, N-(5-(6-Chloro-5-(cyclopropanesulfonamido)pyridin-3-yl)thiazolo[5,4-b]pyridin-2-yl)acetamide], more than 1000 nM.

For another assay, the target named is T1, PI3Kalpha (PIK3CA/PIK3R1, p110 alpha/p85 alpha) (Homo sapiens, UniProt P42336).
T1 construct: recombinant human, full length, N-terminal His-tagged phosphoinositide-3-kinase catalytic subunit alpha polypeptide; His (N); purchased Invitrogen Corp. PV4788; host or cells: insect cells
T1 sequence (P42336 whole entry): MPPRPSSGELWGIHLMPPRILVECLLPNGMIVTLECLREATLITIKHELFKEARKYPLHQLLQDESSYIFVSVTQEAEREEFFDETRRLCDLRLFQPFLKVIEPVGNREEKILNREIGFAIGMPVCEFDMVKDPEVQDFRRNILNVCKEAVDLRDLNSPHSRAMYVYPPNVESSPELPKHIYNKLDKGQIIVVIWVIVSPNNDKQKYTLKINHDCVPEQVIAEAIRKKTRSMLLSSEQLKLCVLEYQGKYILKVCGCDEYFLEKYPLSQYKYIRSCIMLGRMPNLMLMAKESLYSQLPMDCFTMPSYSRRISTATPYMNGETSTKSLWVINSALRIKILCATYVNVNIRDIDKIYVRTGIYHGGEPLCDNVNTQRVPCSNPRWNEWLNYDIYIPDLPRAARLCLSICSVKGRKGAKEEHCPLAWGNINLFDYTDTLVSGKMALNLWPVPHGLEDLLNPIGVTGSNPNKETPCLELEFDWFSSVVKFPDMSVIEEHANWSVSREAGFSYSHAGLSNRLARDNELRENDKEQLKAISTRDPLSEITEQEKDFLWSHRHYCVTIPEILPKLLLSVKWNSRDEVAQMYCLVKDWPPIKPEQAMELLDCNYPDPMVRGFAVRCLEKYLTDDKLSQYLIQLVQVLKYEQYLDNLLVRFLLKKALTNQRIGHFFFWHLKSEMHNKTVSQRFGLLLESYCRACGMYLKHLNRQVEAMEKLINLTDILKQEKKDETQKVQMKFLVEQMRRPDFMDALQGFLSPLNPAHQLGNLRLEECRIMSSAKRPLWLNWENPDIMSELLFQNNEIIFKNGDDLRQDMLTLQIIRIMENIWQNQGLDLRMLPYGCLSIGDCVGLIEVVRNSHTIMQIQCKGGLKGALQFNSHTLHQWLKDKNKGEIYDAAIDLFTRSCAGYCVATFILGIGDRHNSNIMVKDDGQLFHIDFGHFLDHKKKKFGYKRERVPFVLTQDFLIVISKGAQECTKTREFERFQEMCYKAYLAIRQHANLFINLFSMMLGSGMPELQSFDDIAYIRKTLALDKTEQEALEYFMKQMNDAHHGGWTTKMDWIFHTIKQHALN
T1 sequence (P27986 whole entry partner): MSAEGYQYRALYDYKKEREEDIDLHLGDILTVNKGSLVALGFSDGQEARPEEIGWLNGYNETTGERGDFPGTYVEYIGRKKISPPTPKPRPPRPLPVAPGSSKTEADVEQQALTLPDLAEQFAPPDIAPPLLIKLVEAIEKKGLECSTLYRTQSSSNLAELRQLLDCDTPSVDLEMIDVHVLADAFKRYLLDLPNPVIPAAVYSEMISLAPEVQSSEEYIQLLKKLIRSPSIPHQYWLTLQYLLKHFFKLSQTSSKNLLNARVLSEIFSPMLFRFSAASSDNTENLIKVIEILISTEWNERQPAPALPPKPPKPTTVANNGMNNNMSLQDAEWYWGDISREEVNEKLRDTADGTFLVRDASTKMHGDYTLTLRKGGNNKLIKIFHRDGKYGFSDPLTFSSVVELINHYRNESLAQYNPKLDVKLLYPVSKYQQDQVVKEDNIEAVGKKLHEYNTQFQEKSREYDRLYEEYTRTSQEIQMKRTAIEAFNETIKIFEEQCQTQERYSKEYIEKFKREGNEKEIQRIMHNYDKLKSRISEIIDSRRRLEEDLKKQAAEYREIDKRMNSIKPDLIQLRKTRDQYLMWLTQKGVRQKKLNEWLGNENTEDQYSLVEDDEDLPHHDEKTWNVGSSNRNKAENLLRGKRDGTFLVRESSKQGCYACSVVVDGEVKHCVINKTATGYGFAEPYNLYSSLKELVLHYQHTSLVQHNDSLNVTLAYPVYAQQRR
The assay is described as follows: Adapta universal kinase assay, inhibition of PI3Kalpha (Example B). Type of assay: biochemical. The settings on record: Table 1; 25 μM ATP; read-out: IC50 (nM) PI3Kα. From the text: In contrast to ATP depletion assays, the Adapta™ assay is extremely sensitive to ADP formation such that a majority of the signal change occurs in the first 10-20% conversion of ATP to ADP. This makes the Adapta™ universal kinase assay ideally suited for use with low activity kinases.
The principle of the Adapta™ universal kinase assay is outlined below. The assay itself can be divided into two phases: a kinase reaction phase, and an ADP detection phase. In the kinase reaction phase, all components required for the kinase reaction are added to the well, and the reaction is allowed to incubate for 60 minutes. After the reaction, a detection solution consisting of a europium labeled anti-ADP antibody, an Alexa Fluor® 647 labeled ADP tracer, and EDTA (to stop the kinase reaction) is added to the assay well. ADP formed by the kinase reaction (in the absence of an inhibitor) will displace the Alexa Fluor® 647 labeled ADP tracer from the antibody, resulting in a decrease in the TR-FRET signal.
ADP formation is determined by calculating the emission ratio from the assay well. The emission ratio is calculated by dividing the intensity of the tracer (acceptor) emission by the intensity of the Eu (donor) emission at 615 nm as shown in the equation below.
Since the Adapta™ technology measures ADP formation (i.e. conversion of ATP to ADP) it can be used to measure any type of ATP hydrolysis, including intrinsic ATPase activity of kinases. In this case, the substrate is water, not a lipid or peptide (Kashem, et al., 2007, J. Biomol. Screen. 12, 1, 70-83).
The combination of recombinant human, full length, N-terminal His-tagged phosphoinositide-3-kinase catalytic subunit alpha polypeptide ([…], PI3Kalpha), expressed in and purified from insect cells along with co-expressed recombinant, full length, untagged phosphoinositide-3-kinase regulatory subunit 1 (p85 alpha) (combination also known as PIK3CA/PIK3R1; Invitrogen Corp. Cat # PV4788) was used as the enzyme for this assay.
The test compounds are screened at 1% DMSO (final) in the well. […] The PIP2:PS Substrate/Kinase Mixture was diluted 2× to working concentration in Kinase Buffer containing 50 mM HEPES pH 7.5, 0.1% CHAPS, and 1 mM EGTA. […] The Detection Mix was prepared in TR-FRET Dilution Buffer.
After the 1 hour Kinase Reaction incubation at room temperature, 5 μL of Detection Mix was added, followed by another 30 sec plate shake to ensure mixing, and the Detection Mix was allowed to equilibrate for 1 hour at room temperature.
Lipid substrates are prepared by creating lipid vesicles. In some cases, these vesicles include a carrier lipid, such as phosphatidylserine (PS). In the assay conditions section above, “PIP2:PS” refers to large unilamellar vesicles (LUVs) containing five mole percent L-α-Phosphatidylinositol-4,5-bisphosphate (PIP2) and ninety-five percent phosphatidylserine (PS), and the concentration listed refers only to the PIP2 substrate, not the PS carrier lipid.
With `CC(=O)Nc1nc2ccc(-c3ccc(C(C)(C)C#N)cc3)nc2s1` [Example 5, N-(5-(4-(2-Cyanopropan-2-yl)phenyl)thiazolo[5,4-b]pyridin-2-yl)acetamide], the IC50 was more than 1000 nM.

One may read the IC50 as the concentration that gives 50% inhibition.
